Data on 8 compounds can be found in EP0039059A2, “Anti-inflammatory drugs and their application” (F. HOFFMANN-LA ROCHE & CO. Aktiengesellschaft, priority 1980, dated 1981).

Experiment [1] has as its system Krotonöl-Entzündung in der Maus. Briefly: Croton oil inflammation in the mouse (ear punch weight). The following applies: for Gewicht der Ohrstücke in mg: croton oil alone 19,7±0,6, vehicle without croton oil 7,2; for Hemmung in %: topical, mouse ear, 6 h. It counts as in vivo, Mäusen (Charles River CD-1). As for the experimental part: Eine Lösung aus 0,1 Teilen Krotonöl, 1 Teil destilliertem Wasser, 4 Teilen Pyridin und 4,9 Teilen Diäthyläther (Volumenteile), welche die Testverbindung enthält, wird topisch auf Ohren von 21 Tage alten männlichen Mäusen (Charles River CD-1) gegeben (25 ul). Verschiedene Gruppen von Mäusen dienten als Kontrollgruppen (Trägermaterial-Gruppe und Krotonöl-Gruppe). Nach 6 Stunden wird das Gewicht der Ohrstücke bestimmt, das in erster Linie ein Mass für die Oedem-Komponente der Entzündung ist. Verminderung des Gewichtes von Ohrstücken, welche von Mäusen erhalten wurden, welche mit der Testverbindung und dem Reizmittel behandelt worden sind, verglichen mit dem Gewicht von Ohrstücken, die von Mäusen erhalten wurden, die nur mit dem Reizmittel behandelt worden sind, zeigt entzündungshemmende Wirkung an (Endocrinology 77, 625-634, 1965; Clin. Pharm. Exp. Therap. 16, 900-904, 1974).
Die Verbindung E wird bei 3 verschiedenen Dosierungen im Krotonöl-Entzündungs-Test in der Maus auf ihre topisch entzündungshemmende Wirkung hin geprüft. Ebenfalls getestet werden Hydrocortison, ein bekanntes topisch entzündungshemmendes Corticosteroid, und eine Reihe von bekannten Verbindungen, welche systemisch entzündungshemmend wirken und nicht zur Klasse der Steroide gehören. Die Testresultate (Hemmung in Prozenten) sind in der unten stehenden Tabelle angegeben. Wie man diesen Resultaten entnehmen kann, entfaltet die Verbindung E eine vergleichbare Aktivität wie Hydrocortison, währenddem die anderen Verbindungen, welche nicht zur Klasse der Steroide gehören, in wesentlich höheren Dosierungen verabreicht werden müssen, um eine vergleichbare Hemmung zu bewirken, wie die Verbindung E und Hydrocortison.
Die entzündungshemmende Wirkung der Verbindung E alleine oder in Kombination mit 4-(3-Butoxy-4-methoxybenzyl)-2-imidazolidinon wird im Krotonöl-Test an der Maus bestimmt. Die Verbindung E wird bei verschiedenen Konzentrationen verwendet. 4-(3-Butoxy-4-methoxybenzyl)-2-imida- zolidinon wird, sofern vorhanden, in einer Konzentration von 5 Gewichtsprozenten (bezogen auf das Gewicht der applizierten Lösung) eingesetzt. Die Testresultate sind in der unten stehenden Tabelle aufgeführt.

Experiment [2] concerns Oxazolon-Entzündung in vorsensibilisierten Mäusen. Briefly: Oxazolone inflammation in presensitised mice (ear punch weight). The following applies: topical, mouse ear, 24 h. It counts as in vivo, Mäuse (Charles River CD-1). The protocol:
21 Tage alte männliche Mäuse (Charles River CD-1) werden mit Oxazolon sensibilisiert, indem man 400 ug Oxazolon in 20 ul Aceton topisch auf das Scrotum appliziert.. Eine Woche später werden 10 ul Aceton oder 200 µg Oxazolon topisch auf die innere Oberfläche des Ohres und die Testverbindung in 10 µl Aceton auf die äussere Oberfläche des Ohres appliziert. Verschiedene Gruppen von Mäusen dienten als Kontrollgruppen (Trägermaterial-Gruppe und Oxazolon-Gruppe). Das Gewicht der Ohrstücke wird 24 Stunden später bestimmt. Verminderung des Gewichtes der Ohrstücke, erhalten aus Mäusen, welche mit der Testverbindung und mit Oxazolon behandelt worden sind, verglichen mit dem Gewicht der Ohrstücke, erhalten aus Mäusen, welche mit Oxazolon alleine behandelt worden sind, zeigt entzündungshemmende Wirkungen (Br. J. Pharmacol. 43, 403-408, 1971).
Die topisch entzündungshemmenden Wirkungen der Verbindung E, Hydrocortison und Indomethacin werden bei verschiedenen Dosierungen im Oxazolon-Entzündungs-Test in vorsensibilisierten Mäusen bestimmt. Die Testresultate (Hemmung in %) sind in der untenstehenden Tabelle angegeben.

For experiment [3], the system named is Baumwollkügelchen-Granuloma. As to the kind of experiment: Cotton pellet granuloma method in the rat. Type of experiment: in vivo, Ratten (Charles River CD). The following applies: s.c. implant, 72 h; for durchschnittliches Nettogewicht der Kügelchen in mg trocken: ethanol vehicle 32.6; for durchschnittliches Nettogewicht der Kügelchen in mg feucht: ethanol vehicle 392.5. The protocol: Man löst die Testverbindung in einem geeigneten Lösungsmittel und appliziert jeweils 0,1 ml dieser Lösung auf einheitliche, vorher gewogene Baumwollkügelchen, die man aus Baumwolltampons herausgeschnitten hat. Man trocknet die Baumwollkügelchen bei Raumtemperatur. 2 mit der Testverbindung imprägnierte Kügelchen werden auf dem Dorsum von 5 Wochen alten männlichen Ratten (Charles River CD) subcutan inplantiert. 72 Stunden später werden die Kügelchen entfernt. Man bestimmt das Feucht- und Trockengewicht und korrigiert um das Tara der Kügelchen. Vergleicht man nun die Gewichte der Granulomata, die man von mit der Testverbindung imprägnierten Kügelchen erhalten hat, mit den Gewichten der Granulomata, die man von nur mit Trägermaterial imprägnierten Kügelchen erhalten hat, miteinander, so zeigt eine Abnahme des Gewichtes entzündungshemmende Wirkung an (Endocrinology 60, 153-160, 1957).
Die topisch entzündungshemmenden Wirkungen der Verbindung E und Hydrocortison werden durch Verwendung des Baumwollkügelchen-Granuloma-Verfahrens an der Ratte bestimmt. Die in der unten stehenden Tabelle angegebenen Testresultate zeigen, dass die Verbindung E bei Dosierungenen von 90 und 270 µg/0,1 ml grösser ist als die Akti- vität von Hydrocortison (niedrigere Feucht- und Trockengewichte).

Experiment [4] has as its system Cantharidin-Entzündung in der Ratte. Briefly: Cantharidin inflammation in the rat (ear punch weight). Type of experiment: in vivo, Ratten (Charles River CD). The following applies: 100 µg/0,1 ml topical, compound given 24 h after cantharidin, autopsy 72 h. As for the experimental part: Eine Lösung aus einem Teil Aethanol, 1,5 Teilen Collodion, 2 Teilen Aceton und 3 Teilen Diäthyläther (Volumenteile), welche 400 ug Cantharidin/0,1 ml und die Testverbindung in der gewünschten Menge enthält, wird topisch auf die äussere Oberfläche von Ohren von 21 Tage alten männlichen Ratten (Charles River CD) gegeben (0,1 ml). Andere Gruppen von Ratten werden mit Trägermaterial alleine, mit Cantharidin alleine und mit Cantharidin plus Testverbindung behandelt. Wo in den Beispielen angegeben, wird die Testverbindung 24 Stunden nach Verabreichung von Cantharidin verabreicht. 72 Stunden nach Verabreichung von Cantharidin wird eine Autopsie durchgeführt. Aus dem Ohr werden an der behandelten Stelle einheitliche Stücke herausgestanzt und gewogen. Aus den Gewichtsveränderungen lassen sich die Auswirkungen auf den Entzündungsprozess ermitteln, und zwar sowohl für die Flüssigkeits- als auch für die Gewebskomponente. Eine Reduktion des Gewichtes von Hautstücken, die man aus Ratten erhalten hat, welche mit dem Reizmittel und der Testverbindung behandelt worden sind, verglichen mit dem Gewicht von Hautstücken, welche man von Ratten erhalten hat, die nur mit dem Reizmittel behandelt worden sind, zeigt eine entzündungshemmende Wirkung an (J. Invest. Dermatol. 68, 161-164, 1977).
Eine Reihe von Verbindungen der allgemeinen Formel I werden im Cantharidin-Entzündungs-Test in der Ratte auf ihre topisch entzündungshemmenden Wirkungen hin ge- testet. Jede Verbindung wird bei 5 verschiedenen Dosierungen getestet. Die in der nachfolgenden Tabelle ange- gebenen Testresultate (in %) geben an, um wieviel die durch Cantharidin bewirkte Zunahme des Gewichtes der Ohrstücke durch die jeweilige Testverbindung reduziert wird: • [formula]
Die topisch entzündungshemmende Wirkung der Verbindung E wird bei einer Dosierung von 100 µg/0,1 ml im Cantharidin- Entzündungs-Test in der Ratte bestimmt, wobei man adrenalektomierte und intakte Ratten verwendet. Wie man den Testresultaten in der untenstehenden Tabelle entnehmen kann, entfaltet die Verbindung E an der adrenalektomierten Ratte etwa die gleich grosse Wirkung wie an der intakten Ratte. Dies zeigt an, dass der primäre Wirkungsmechanismus nicht in der Stimulierung der Nebennierenrinde besteht.

Where [5] appears, read: pellets impregnated with 90 µg/0.1 ml.
Where [6] appears, read: pellets impregnated with 270 µg/0.1 ml.

As to `CCCCOc1cc(CC2CNC(=O)N2)ccc1OC` (stereo not drawn) [4-(3-Butoxy-4-methoxybenzyl)-2-imidazolidinon], in experiment [1] (5% imidazolidinone, Verbindung E 0 µg/0,1 ml), the “Gewicht der Ohrstücke in mg” value is on record as 17,6±1,0 mg. Also, the “entzündungshemmende Wirkung” value in experiment [1] (alone, at concentrations of 5%, test not given) is on record as “nur wenig oder gar keine entzündungshemmende Wirkung”. In addition, in experiment [1] (imidazolidinone at 5% combined with Verbindung E), the “Einfluss auf die entzündungshemmende Wirkung der Verbindung E” value was “potenziert”.
Regarding `CC(=O)Oc1ccccc1C(=O)O` [Acetylsalicyl säure], the Hemmung in % is listed as 28% in experiment [1] (dose 1250 µg/25 µl), 36% in experiment [1] (dose 2500 µg/25 µl), 78% in experiment [1] (dose 5000 µg/25 µl) and 88% in experiment [1] (dose 10000 µg/25 µl).
With `CC(C(=O)O)c1cccc(Oc2ccccc2)c1` (stereo not drawn) [Fenoprofen], the values for the Hemmung in % in experiment [1] (dose 1250 µg/25 µl) and in experiment [1] (dose 2500 µg/25 µl) were 50% and 71%, respectively.
In the case of `C[C@]12CCC(=O)C=C1CC[C@@H]1[C@@H]2[C@@H](O)C[C@@]2(C)[C@H]1CC[C@]2(O)C(=O)CO` [Hydrocortison], the Hemmung in % in experiment [1] (dose 50 µg/25 µl) came out at 53%; in experiment [1] (dose 125 µg/25 µl) it was 77%; in experiment [1] (dose 250 µg/25 µl), 98%; in experiment [2] (dose 50 µg/10 µl) it was 24%; in experiment [2] (dose 200 µg/10 µl) it was 49%. Besides, the “durchschnittliches Nettogewicht der Kügelchen in mg trocken” value is on record as 37.7 mg in experiment [3] (setting [5]) and 20.3 mg in experiment [3] (setting [6]). The entries for the “durchschnittliches Nettogewicht der Kügelchen in mg feucht” value in experiment [3] (setting [5]) and in experiment [3] (setting [6]) were 406.5 mg and 286.6 mg, respectively.
For `COc1ccc2c(c1)c(CC(=O)O)c(C)n2C(=O)c1ccc(Cl)cc1` [Indomethacin], the Hemmung in % is listed as 32% in experiment [2] (dose 500 µg/10 µl) and 59% in experiment [2] (dose 1000 µg/10 µl).
With `COc1ccc2cc([C@H](C)C(=O)O)ccc2c1` [Naproxen], the values for the Hemmung in % in experiment [1] (dose 1250 µg/25 µl) and in experiment [1] (dose 2500 µg/25 µl) were 60% and 87%, respectively.
Regarding `CN1CCN(C2=Cc3ccccc3Sc3ccc(Cl)cc32)CC1` [Verbindung E, 8-Chlor-10-(4-methylpiperazino)dibenzo-[b,f]thiepin], the Hemmung in % was found to be 49% in experiment [4] (adrenalectomised rats); 55% in experiment [4] (intact rats); 48% in experiment [1] (dose 100 µg/25 µl); 67% in experiment [1] (dose 200 µg/25 µl); 91% in experiment [1] (dose 500 µg/25 µl); 51% in experiment [2] (dose 100 µg/10 µl). Further, the Hemmung in % in experiment [2] (dose 500 µg/10 µl) amounted to 75%. Besides, the “Gewicht der Ohrstücke” value in experiment [4] (adrenalectomised rats, vehicle 11.4±0.2, cantharidin alone 25.5±1.0) turned out to be 18.6±0.6; in experiment [4] (intact rats, vehicle 12.0±0.4, cantharidin alone 25.2±1.5) it was 18.0±1.1. For the same compound, the “Gewicht der Ohrstücke in mg” value in experiment [1] (Verbindung E alone, 100 µg/0,1 ml) is 15,9±0,8 mg; in experiment [1] (Verbindung E alone, 400 µg/0,1 ml) it was 11,8±0,6 mg. Further, the “durchschnittliches Nettogewicht der Kügelchen in mg trocken” value amounted to 20.1 mg in experiment [3] (setting [5]) and 16.9 mg in experiment [3] (setting [6]). Further, the “durchschnittliches Nettogewicht der Kügelchen in mg feucht” value in experiment [3] (setting [5]) worked out at 285.2 mg; in experiment [3] (setting [6]), 234.9 mg.
On to Phenylbutazon, for which the results for the Hemmung in % in experiment [1] (dose 1250 µg/25 µl) and in experiment [1] (dose 2500 µg/25 µl) were 33% and 69%, respectively.
